Data as given in patent US20240132450A1, “MODULATORS OF G PROTEIN-COUPLED RECEPTOR 88” (ACADIA Pharmaceuticals Inc., priority 2020, published 2024).
pEC50: −log10 of the molar value.

biological target: hGPR88 receptor (Homo sapiens, UniProt Q9GZN0); experiment: hGPR88-HEK cAMP accumulation assay; settings: GRP88 agonist activity (EC50), HEK-293 cells expressing human recombinant GPR88, forskolin 200 nM, High/Medium/Low bands
Sequence (Q9GZN0 whole entry): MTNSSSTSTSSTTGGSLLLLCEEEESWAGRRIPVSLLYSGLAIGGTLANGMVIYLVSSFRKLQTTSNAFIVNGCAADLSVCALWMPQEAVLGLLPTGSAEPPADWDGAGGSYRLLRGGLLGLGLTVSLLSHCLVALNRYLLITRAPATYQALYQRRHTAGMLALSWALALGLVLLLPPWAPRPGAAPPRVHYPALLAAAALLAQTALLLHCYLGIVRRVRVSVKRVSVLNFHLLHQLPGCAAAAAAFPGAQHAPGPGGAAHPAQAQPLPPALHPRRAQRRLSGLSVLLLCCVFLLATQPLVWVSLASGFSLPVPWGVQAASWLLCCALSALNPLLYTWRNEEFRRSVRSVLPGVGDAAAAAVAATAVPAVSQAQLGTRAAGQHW

`COCc1ccc(-c2ccc(N(C)C(=O)C3CC3c3ccccn3)cc2)cc1` (racemic) [Example 73, (rac-trans)-N-(4′-(methoxymethyl)-[1,1′-biphenyl]-4-yl)-N-methyl-2-(pyridin-2-yl)cyclopropane-1-carboxamide] and `COCc1ccc(-c2ccc(N(CC(C)(C)O)C(=O)C3CC3c3ccccn3)cc2)cc1` (centres unmarked) [Example 141, N-(2-hydroxy-2-methylpropyl)-N-(4′-(methoxymethyl)-[1,1′-biphenyl]-4-yl)-2-(pyridin-2-yl)cyclopropane-1-carboxamide] cannot be ordered by pEC50: under 5.30 for the first, under 5.30 for the second.

`COCc1ccc(-c2ccc(NC(=O)C3CC3c3ccccc3)cc2)cc1` (racemic) [Example 61, (rac-trans)-N-(4′-(methoxymethyl)-[1,1′-biphenyl]-4-yl)-2-phenylcyclopropane-1-carboxamide] and `CN(C)Cc1ccc(-c2ccc(NC(=O)C3CC3c3ccccn3)cc2)cc1` (racemic) [Example 48, (rac-trans)-N-(4′-(dimethylamino)methyl)-[1,1′-biphenyl]-4-yl)-2-(pyridin-2-yl)cyclopropane-1-carboxamide] cannot be ordered by pEC50: under 5.30 for the first, under 5.30 for the second.

Compared with `COCc1ccc(-c2ccc(NC(=O)C(C)(C)Oc3ccccc3F)cc2)cc1` [Example 103, 2-(2-fluorophenoxy)-N-(4′-(methoxymethyl)-[1,1′-biphenyl]-4-yl)-2-methylpropanamide], `COCc1ccc(-c2ccc(NC(=O)C(C)(C)Oc3ccccc3C)cc2)cc1` [Example 64, N-(4′-(methoxymethyl)-[1,1′-biphenyl]-4-yl)-2-methyl-2-(o-tolylox)propenamide] is higher in pEC50: 5.30 to 6.00 for the first, over 6.00 for the second. The second is the more potent here.

First: COCc1ccc(-c2ccc(NC(=O)C(C)(C)Oc3ccc(Cl)c(C)c3)cc2)cc1 [Example 97, 2-(4-chloro-3-methylphenoxy)-N-(4′-(methoxymethyl)-[1,1′-biphenyl]-4-yl)-2-methylpropanamide]
Second: COCc1ccc(-c2ccc(NC(=O)C(C)(C)Oc3ccccc3Cl)cc2)cc1 [Example 67, 2-(2-chlorophenoxy)-N-(4′-(methoxymethyl)-[1,1′-biphenyl]-4-yl)-2-methylpropanamide]
The pEC50 of the first is lower: 5.30 to 6.00 for the first, over 6.00 for the second. The second is the more potent here.

`CC(C)(Oc1ccc(F)cc1)C(=O)Nc1ccc(-c2ccc(OC(F)(F)F)cc2)cc1` [Example 12, 2-(4-fluorophenoxy)-2-methyl-N-(4′-(trifluoromethoxy)-[1,1′-biphenyl]-4-yl)propanamide] and `CC(C)(Oc1ccc(F)cc1)C(=O)Nc1ccc(-c2ccc(C(F)(F)F)cc2)cc1` [Example 10, 2-(4-fluorophenoxy)-2-methyl-N-(4′-(trifluoromethyl)-[1,1′-biphenyl]-4-yl)propenamide] cannot be ordered by pEC50: under 5.30 for the first, under 5.30 for the second.

First: COCc1ccc(-c2ccc(NC(=O)C(C)(C)Oc3ccc(F)cn3)cc2)cc1 [Example 138, 2-((5-fluoropyridin-2-yl)oxy)-N-(4′-(methoxymethyl)-[1,1′-biphenyl]-4-yl)-2-methylpropanamide]
Second: COCc1ccc(-c2ccc(NC(=O)C(C)(C)Oc3ccc(C(F)(F)F)cn3)cc2)cc1 [Example 71, N-(4′-(methoxymethyl)-[1,1′-biphenyl]-4-yl)-2-methyl-2-((5-(trifluoromethyl)pyridin-2-yl)oxy)propenamide]
The pEC50 of the first is higher: 5.30 to 6.00 for the first, under 5.30 for the second.

Compared with `CCCCN(C(=O)C(C)(C)Oc1ccc(F)cc1)c1ccc(-c2ccc(COC)cc2)cc1` [Example 28, N-butyl-2-(4-fluorophenoxy)-N-(4′-(methoxymethyl)-[1,1′-biphenyl]-4-yl)-2-methylpropanamide], `CCCN(C(=O)C(C)(C)Oc1ccc(F)cc1)c1ccc(-c2ccc(COC)cc2)cc1` [Example 22, 2-(4-fluorophenoxy)-N-(4′-(methoxymethyl)-[1,1′-biphenyl]-4-yl)-2-methyl-N-propylpropanamide] is lower in pEC50: over 6.00 for the first, 5.30 to 6.00 for the second.

First: O=C(Nc1ccc(-c2ccc(OC3CC3)cc2)cc1)C1CC1c1ccccn1 (single isomer, unassigned) [Example 130, N-(4′-cyclopropoxy-[1,1′-biphenyl]-4-yl)-2-(pyridin-2-yl)cyclopropane-1-carboxamide]
Second: O=C(Nc1ccc(-c2ccc(CN3CCOCC3)cc2)cc1)C1CC1c1ccccn1 (single isomer, unassigned) [Example 77, (1R*,2R*)-N-(4′-(morpholinomethyl)-[1,1′-biphenyl]-4-yl)-2-(pyridin-2-yl)cyclopropane-1-carboxamide]
The pEC50 of the first is lower: under 5.30 for the first, 5.30 to 6.00 for the second. The second is the more potent here.

First: CCCc1ccc(-c2ccc(NC(=O)C(C)(C)Oc3ccc(F)cc3)cc2)cn1 [Example 91, 2-(4-fluorophenoxy)-2-methyl-N-(4-(6-propylpyridin-3-yl)phenyl)propanamide]
Second: Cc1ncc(-c2ccc(NC(=O)C(C)(C)Oc3ccc(F)cc3)cc2)cn1 [Example 24, 2-(4-fluorophenoxy)-2-methyl-N-(4-(2-methylpyrimidin-5-yl)phenyl)propenamide]
The pEC50 of the first is higher: 5.30 to 6.00 for the first, under 5.30 for the second. The first is the more potent here.

`COCCN(C(=O)C(C)(C)Oc1ccc(F)cc1)c1ccc(-c2ccc(COC)cc2)cc1` [Example 15, 2-(4-fluorophenoxy)-N-(2-methoxyethyl)-N-(4′-(methoxymethyl)-[1,1′-biphenyl]-4-yl)-2-methylpropanamide] and `COCc1ccc(-c2ccc(N(CC(C)(C)O)C(=O)C(C)(C)Oc3ccc(F)cc3)cc2)cc1` [Example 39, 2-(4-fluorophenoxy)-N-(2-hydroxy-2-methylpropyl)-N-(4′-(methoxymethyl)-[1,1′-biphenyl]-4-yl)-2-methylpropanamide] fall in the same range of pEC50: 5.30 to 6.00 for the first, 5.30 to 6.00 for the second.

Compared with `COCc1ccc(-c2ccc(NC(=O)C3CC3c3ccccn3)nc2)cc1` (racemic) [Example 120, (rac-trans)-N-(5-(4-(methoxymethyl)phenyl)pyridin-2-yl)-2-(pyridin-2-yl)cyclopropane-1-carboxamide], `CN(C)Cc1ccc(-c2ccc(NC(=O)C3CC3c3ccccn3)nc2)cc1` (racemic) [Example 82, (rac-trans)-N-(5-(4-((dimethylamino)methyl)phenyl)pyridin-2-yl)-2-(pyridin-2-yl)cyclopropane-1-carboxamide] is lower in pEC50: 5.30 to 6.00 for the first, under 5.30 for the second.

`COCc1ccc(-c2ccc(NC(=O)C(C)(C)Oc3ccc(C(F)(F)F)cc3)cc2)cc1` [Example 104, N-(4′-(methoxymethyl)-[1,1′-biphenyl]-4-yl)-2-methyl-2-(4-(trifluoromethyl)phenoxy)propanamide] and `COCc1ccc(-c2ccc(NC(=O)C(C)(C)Oc3ccc(C(N)=O)cc3)cc2)cc1` [Example 102, 4-((1-((4′-(methoxymethyl)-[1,1′-biphenyl]-4-yl)amino)-2-methyl-1-oxopropan-2-yl)oxy)benzamide] fall in the same range of pEC50: 5.30 to 6.00 for the first, 5.30 to 6.00 for the second.

First: COCc1ccc(-c2ccc(N(C[C@@H](O)[C@@H](C)OC)C(=O)C3CC3c3ccccn3)cc2)cc1 (mixture of isomers) [Example 5, (rac-trans)-N-((2R,3R)-2-hydroxy-3-methoxybutyl)-N-(4′-methoxymethyl)-[1,1′-biphenyl]-4-yl)-2-(pyridin-2-yl)cyclopropane-1-carboxamide]
Second: COCc1ccc(-c2ccc3c(c2)CCN3C(=O)C2CC2c2ccccn2)cc1 (racemic) [Example 50, (5-(4-(methoxymethyl)phenyl)indolin-1-yl)((rac-trans)-2-(pyridin-2-yl)cyclopropyl)methanone]
The pEC50 of the first is lower: under 5.30 for the first, 5.30 to 6.00 for the second.

First: COCc1ccc(-c2ccc(N(C)C(=O)C(C)(C)Oc3ccc(F)cc3)cc2)c(F)c1 [Example 115, N-(2′-fluoro-4-(methoxymethyl)-[1,1′-biphenyl]-4-yl)-2-(4-fluorophenoxy)-N,2-dimethylpropanamide]
Second: COCc1ccc(-c2ccc(NC(=O)C(C)(C)Oc3ccc(F)cc3)cc2)c(F)c1 [Example 114, N-(2′-fluoro-4′-(methoxymethyl)-[1,1′-biphenyl]-4-yl)-2-(4-fluorophenoxy)-2-methylpropanamide]
The pEC50 of the first is higher: over 6.00 for the first, 5.30 to 6.00 for the second.

Compared with `CCOc1ncc(-c2ccc(NC(=O)C(C)(C)Oc3ccc(F)cc3)cc2)cn1` [Example 30, N-(4-(2-ethoxypyrimidin-5-yl)phenyl)-2-(4-fluorophenoxy)-2-methylpropanamide], `COCc1ccc(-c2ccc(NC(=O)C(C)(C)Oc3ccc(F)cc3)cc2)cc1F` [Example 93, N-(3′-fluoro-4′-(methoxymethyl)-[1,1′-biphenyl]-4-yl)-2-(4-fluorophenoxy)-2-methylpropanamide] is lower in pEC50: 5.30 to 6.00 for the first, under 5.30 for the second.

`COc1ccc(OC(C)(C)C(=O)Nc2ccc(-c3ccc(CN4CCOCC4)cc3)cc2)cc1` [Example 113] and `CC(c1ccc(-c2ccc(NC(=O)C(C)(C)Oc3ccc(F)cc3)cc2)cc1)N1CCOCC1` (single isomer, unassigned) [Example 122, 2-(4-fluorophenoxy)-2-methyl-N-(4′-(1-morpholinoethyl)-[1,1′-biphenyl]-4-yl)propanamide] fall in the same range of pEC50: 5.30 to 6.00 for the first, 5.30 to 6.00 for the second.

`COCc1ccc(-c2ccc(NC(=O)C(C)Oc3ccc(F)cc3)cc2)cc1` (centres unmarked) [Example 6] and `CC(C)OCc1ccc(-c2ccc(NC(=O)C(C)(C)Oc3ccc(F)cc3)cc2)cc1` [Example 131, 2-(4-fluorophenoxy)-N-(4′-(isopropoxymethyl)-[1,1′-biphenyl]-4-yl)-2-methylpropanamide] cannot be ordered by pEC50: under 5.30 for the first, under 5.30 for the second.

First: CC(C)Oc1ccc(-c2ccc(NC(=O)C3CC3c3ccccn3)cc2)cn1 (racemic) [Example 109, (rac-trans)-N-(4-(6-isopropoxypyridin-3-yl)phenyl)-2-(pyridin-2-yl) cyclopropane-1-carboxamide]
Second: CN(C)c1ccc(-c2ccc(NC(=O)C3CC3c3ccccn3)cc2)cn1 (centres unmarked) [Example 125, N-(4-(6-(dimethylamino)pyridin-3-yl)phenyl)-2-(pyridin-2-yl)cyclopropane-1-carboxamide]
The pEC50 of the first is higher: 5.30 to 6.00 for the first, under 5.30 for the second.

First: COCc1ccc(C23CC(NC(=O)C4CC4c4ccccn4)(C2)C3)cc1 (racemic) [Example 110, (rac-trans)-N-(3-(4-(methoxymethyl)phenyl)bicyclo[1.1.1]pentan-1-yl)-2-(pyridin-2-yl)cyclopropane-1-carboxamide]
Second: CN(C)C(=O)c1ccc(-c2ccc(NC(=O)C(C)(C)Oc3ccc(F)cc3)cc2)cc1 [Example 16, 4′-(2-(4-fluorophenoxy)-2-methylpropanamido)-N,N-dimethyl-[1,1′-biphenyl]-4-carboxamide]
The pEC50 of the first is higher: 5.30 to 6.00 for the first, under 5.30 for the second.
